Here are results for six sequences from patent US20080269152A1, “Nucleic acid binding oligonucleotides” (President and Fellows of Harvard College Harvard Medical …, priority 2003, published 2008).

For the assay, the system named is internal ribosome entry site of the Hepatitis C virus, nucleotides 1-372 (HCV-IRES) RNA. Kind of assay: Hybridization of Cy3-labeled HCV-IRES RNA to DNA 5mer array. Type of assay: binding. The conditions noted are these: address among the 40 most fluorescent in 3 out of 5 arrays; HCV-IRES RNA 92.7 nM, 4° C. overnight, scanned at 532 nm. How it is done:
A short DNA 5mer array was made to order by Combimatrix® Mukilteo, Wash. The array contained 1,000 of the […] possible DNA 5mer oligomers, and provided a separate address for each oligomer.
The target nucleic acid sequence used was the RNA transcript of the internal ribosome entry site of the Hepatitis C virus, nucleotides 1-372 (HCV-IRES). The RNA was prepared using a Megascrip™ T7 kit, nuclease free water and 5-(3aminoallyl)-UTP, which were all provided by Ambion Inc. A DNA template encoding the HCV-IRES was constructed according to standard techniques and linearized. RNA synthesis reaction mixture contained the following:
The reaction mixture was incubated at 30° C. overnight and purified using Rneasy® kit from QIAGEN, Inc. Target Sequence was then labeled using a Cy3 monoreactive dye pack from Amersham Biosciences, Inc. Dried HCV-IRES RNA was added to 20 μL of sodium carbonate (0.1 M pH 8.5) followed by 20 μL Cy3 dye solution. The reaction mixture was mixed and incubated at room temperature for 1 hour in the dark and purified using RNeasy® mini-kit.
The array was incubated with RNase free water for 30 minutes at 37° C. then washed three times with wash buffer (300 mM NaCl, 100 mM MgCl2). Hybridization was effected by adding a solution of HCV-IRES RNA (92.7 nM in 300 mM NaCl, 100 mM MgCl2 and 100 mM Tris pH 7.4) into the hybridization chamber. The array was incubated at 4° C. overnight in the dark and rinsed three times with wash buffer.
If an address corresponding to the same oligomer was selected in 3 out of 5 arrays analyzed, that oligomer was scored as likely binding ligand for the HCV-IRES RNA.
With GGGGG, the “likely binding candidates for HCV-IRES” value is listed as “likely binding candidates”.
In the case of TTCTC it was “likely binding candidates”.
With TTCCC the entry was “likely binding candidates”; with GGTCC, “likely binding candidates”; with GTCCC, “likely binding candidates”.
With GGCCC the entry was “likely binding candidates”.
